Experimental data as given in patent US10597398B2, “Suppression and regeneration promoting effect of low molecular weight compound on cancer and fibrosis” (NATIONAL UNIVERSITY CORPORATION TOTTORI UNIVERSITY, priority 2015, dated 2020).

Assays:
Format in all cases: cell-based, human
HuH-7 cells = experiment: Growth inhibitory effect on cancer cells (WST assay), Example 2.3; conditions: for IC50: HuH-7 cells, WST assay, concentrations 0-50 μM, control 0.1% DMSO; for IC50 compared with IC-2: comparison with IC-2
Procedure: HuH-7 cells, a human liver cancer cell line, were cultured on 10-cm cell culture dishes (TPP Techno Plastic Products AG, Trasadingen, Switzerland) by using DMEM under conditions at 5% CO2, 37° C., and 100% humidity. When the cells were 70 to 90% confluent, 200 μL of 0.25% Trypsin/1 mM EDTA solution, which had been prepared by diluting the stock solution 10-fold with PBS (−), was added to detach the cells. Then, the cells were centrifuged at 1000 rpm for 3 min at room temperature. The cells recovered were subcultured at a 1:4 split ratio.
First, 70 to 90% confluent HuH-7 cells were harvested and seeded (n=3) at 5×10^3 cells/well of a 96-well plate (TPP). After 24 h, each compound was added to the cells and the mixture was cultured at 37° C. The concentrations of each compound were 0, 10, 20, 30, 40, and 50 μM. For IC-2-506-1, however, the concentrations used were 0, 10, 20, 25, 30, 40, and 50 μM. Each control sample (0 μM) used was 0.1% DMSO, a solvent for each compound.
Next, 0, 24, 48, and 96 h after the compound treatment, 100 μIL of DMEM-diluted 10% Cell Counting Kit-8 (DOJINDO LABORATORIES, Kumamoto) was added. The mixture was incubated at 37° C. for 60 min and its absorbance (at a measurement wavelength of 450 nm/control wavelength of 600 nm) was measured by using a Sunrise Rainbow RC (Tecan Group Ltd., Mannedorf, Switzerland). Absorbance for the cells alone was calculated by subtracting, from the reading obtained, absorbance for 10% Cell Counting Kit-8 alone.
The “*” in figures indicates a significant difference of p<0.05 between 0.1% DMSO and each compound; and the “**” indicates a significant difference of p<0.01 (the same applies to all the figures in Examples).

Wnt/β-catenin signaling [1] = experiment: Inhibitory effect on Wnt/β-catenin signaling in liver stellate cells (LX-2, TCF4 luciferase); conditions: concentration equal to or lower than that of IC-2
Procedure: While each compound was added at concentrations where the cell growth of fibrosis-causing liver stellate LX-2 cells was reduced to about 50 to 80%, Wnt/β-catenin signaling activity was measured. […] The concentrations of the respective compounds were as described in FIG. 41. Each control sample used was 0.1% DMSO, a solvent for each compound.
LX-2 cells, which were cultured and maintained by using 10% FBS/DMEM, were harvested and seeded (n=3) in 1% FBS/DMEM at 4.0×10^4 cells per well of a 24-well plate. Next, 25 μL of Opti-MEM (Gibco, Life Technologies Corp., Carlsbad, Calif.) containing 50 ng of pTCF4-CMVpro-GL4.20, having 3 copies of TCF motifs (CCT TTG ATC) upstream of a CMV promoter in a multiple cloning site of pGL4.20 (Promega), and 5 ng of pRL-CMV Vector (Promega) and 25 μL of Opti-MEM containing 0.4 μL of Lipofectamine 2000 (Invitrogen, Life Technologies Corp., Carlsbad, Calif.) were mixed and incubated at room temperature for 20 min. At 20 h after the cell seeding, the mixture was added to each well, so that both reporter plasmids were transiently transfected into the cells. After additional 4 h, 2.5 ng/mL of TGF-β and each compound were added to the cells and the mixture was cultured at 37° C.
At 24 and 48 h after the compound treatment, the culture medium was discarded, and 100 μL of room temperature 5×Passive Lysis Buffer (PLB), which had been diluted 5-fold with MilliQ water, was added to each well. Next, the plate was shaken at room temperature for 15 min and was then frozen at −30° C. overnight. A Luciferase Assay Substrate was diluted with 10 mL of room temperature Luciferase Assay Buffer II to prepare Luciferase Assay Reagent II (LARII). Then, 1 μL of Stop&Glo Substrate was diluted with 49 μL of room temperature Stop&Glo Buffer to prepare Stop&Glo (Promega) in a quantity enough for samples.
The frozen PLB lysate samples were thawed and permeabilized for 15 min. After that, 50 μl aliquots of LARII were dispensed into 3.5 mL test tubes (Sarstedt, AG & Co., Numbrecht, Germany) and 10 μL of each frozen PLB lysate sample was added and mixed well. Subsequently, luminescence was quantified by using a MiniLumat LB 9506 (Berthold Technologies GmbH & Co, Bad Wildbad, Germany) to measure firefly luciferase activity. After the measurement, 50 μL of Stop&Glo was added and mixed well and luminescence was then quantified by using the MiniLumat LB 9506 to determine Renilla luciferase activity. The measurement results were obtained by dividing the firefly luciferase activity by the Renilla luciferase activity.

Wnt/β-catenin signaling [2] = experiment: Inhibitory effect on Wnt/β-catenin signaling in mesenchymal stem cells (E7-TCF4 luciferase); conditions: for inhibitory effect on Wnt/β-catenin signaling in mesenchymal stem cells: E7-TCF4 cells, day 8 after compound addition, compared with control 0.1% DMSO; for inhibitory effect on Wnt/β-catenin signaling pathway in mesenchymal stem cells compared with IC-2: concentration equal to or lower than that of IC-2
Procedure: A pTCF4-CMVpro-GL4.20 plasmid vector, having 3 copies of TCF4 motifs (CCT TTG ATC) upstream of aCMV promoter in a multiple cloning site of pGL4.20 (Promega Corp., Fitchburg, Wis.), was linearized and stably transfected into UE7T-13 cells to prepare E7-TCF4 cells. Also, a pCMVpro-GL4.20 plasmid vector, having a CMV promoter in a multiple cloning site of pGL4.20, was linearized and stably transfected into UE7T-13 cells. The resulting stable cells (E7-CMV cells) were cultured, like UE7T-13 cells, in 10% FBS/DMEM containing 0.25 μg/mL puromycin.
UE7T-13 cells were used to measure Wnt/β-catenin signaling activity. The concentrations of the respective compounds were as described in FIG. 42. Each control sample used was 0.1% DMSO, a solvent for each compound.
First, 70 to 90% confluent E7-TCF4 cells and E7-CMV cells were harvested and seeded (n=3) at 1.6758×10^4 cells/well of a 24-well plate (9.0×10^3 cells/cm^2). One day after that, each compound was added to the cells and the mixture was cultured at 37° C. Day 4 after the compound addition, the culture medium was changed.
At day 1, 4, or 8 after the compound treatment, the culture medium was discarded, and 100 μL of room temperature 5×Passive Lysis Buffer (PLB), which had been diluted 5-fold with MilliQ water, was added to each well. Next, the plate was shaken at room temperature for 15 min and was then frozen at −30° C. overnight. A Luciferase Assay Substrate was diluted with 10 mL of room temperature Luciferase Assay Buffer II to prepare Luciferase Assay Reagent II (LARII). The frozen PLB lysate samples were thawed and permeabilized for 15 min. Then, 10 μL aliquots were added to wells of a 96-well white plate. While 50 μL aliquots of LARII were each added to each well, luminescence was quantified by using a 1420 multi-label counter ARVO MX to determine firefly luciferase activity.

LX-2 cells = experiment: Anti-fibrosis effect, summary statements on Example 3 (marker not specified); conditions: for anti-fibrosis effect compared with IC-2, equal or higher concentration: concentration equal to or higher than that of IC-2
Excerpt: α-Smooth muscle actin (α-SMA), a fibrosis marker, was used as an indicator, and RNA was collected from LX-2 cells treated with each low-molecular-weight compound. Next, an inhibitory effect on fibrosis was examined by real-time RT-PCR.
In addition, instead of α-SMA, another fibrosis marker collagen, type I, alpha 1 (COL1A1) was used as an indicator, and substantially the same protocol was repeated. The concentrations of each compound used were as described in FIG. 34. Each control sample used was 0.1% DMSO, a solvent for each compound. Here, COL1A1 primers used were 5′-CCT CCA GGG CTC CAA CGA G-3′ and 5′-TCAATCACTGTCTTGCCCCA-3′. The annealing was performed at 58° C. for 5 sec. The measurement results were obtained by dividing the calculated value for the COL1A1 gene by the calculated value for the GAPDH gene.

Wnt/β-catenin signaling [3] = experiment: Inhibitory effect on Wnt/β-catenin signaling in liver cancer cells (HuH7-TCF4 luciferase); conditions: concentration equal to or lower than that of IC-2
Procedure: A pTCF4-CMVpro-GL4.20 plasmid vector, which had been constructed by inserting 3 copies of TCF4 motifs (CCT TTG ATC) upstream of a CMV promoter into a multiple cloning site of pGL4.20 (Promega Corp., Fitchburg, Wis.), was linearized and stably transfected into the HuH-7 cells. The resulting stable cells (HuH7-TCF4 cells) and HuH-7 cells were likewise cultured.
While each compound was added at concentrations where the growth of HuH-7 cells was reduced to about 50% or less, Wnt/β-catenin signaling activity was measured. The concentrations of the respective compounds were as described in FIG. 40. Control samples used were 0.1% DMSO, a solvent for each compound, and 0.5 μM 5-FU.
First, 70 to 90% confluent HuH7-TCF4 cells were harvested and seeded (n=3) at 5.0×10^4 cells/well of a 24-well plate (TPP). After 24 h, each compound was added to the cells and the mixture was cultured at 37° C.
At 48 h after the compound treatment, the culture medium was discarded, and 100 μL of room temperature 5×Passive Lysis Buffer (PLB) (Promega Corp., Fitchburg, Wis.), which had been diluted 5-fold with MilliQ water, was added to each well. Next, the plate was shaken at room temperature for 15 min and was then frozen at −30° C. overnight. A Luciferase Assay Substrate was diluted with 10 mL of room temperature Luciferase Assay Buffer II to prepare Luciferase Assay Reagent II (LARII) (Promega). The frozen PLB lysate samples were thawed and permeabilized for 15 min. Then, 10 μL aliquots were added to wells of a 96-well white plate (Corning Inc., Corning, N.Y.). While 50 μL aliquots of LARII were each added to each well, luminescence was quantified by using a 1420 multi-label counter ARVO MX (PerkinElmer Singapore Pte Ltd., Singapore) to determine firefly luciferase activity. Note that a significant difference was evaluated by using (two-tailed) Student's t-test. The “*” in figures indicates a significant difference of p<0.05 between 0.1% DMSO and each compound; and the “**” indicates a significant difference of p<0.01 (the same applies to all the figures in Examples).

Row | IC50 (HuH-7 cells) [µM] | IC50 compared with IC-2 (HuH-7 cells) | SMILES | inhibitory effect on Wnt/β-catenin signaling pathway in liver stellate cells compared with IC-2 (Wnt/β-catenin signaling [1]) | anti-fibrosis effect compared with IC-2, equal or higher concentration (LX-2 cells) | inhibitory effect on Wnt/β-catenin signaling pathway in liver cancer cells compared with IC-2 (Wnt/β-catenin signaling [3]) | also measured
1 | 36.1 | – | O=C1C(Cc2ccccc2)N2C(=O)CCN(c3ccccc3[N+](=O)[O-])C2CN1Cc1cccc2ccccc12 (stereo not drawn) [Compound 7c-NT] | more potent inhibitory effect | – | – | inhibitory effect on Wnt/β-catenin signaling in mesenchymal stem cells (Wnt/β-catenin signaling [2]): all the compounds except for IC-2-Ar-OMe, 9b, and 7c-NT exhibited a significant inhibitory effect
2 | 14.1 | lower IC50 than IC-2 | O=C1C(Cc2ccccc2)N2C(=O)CCN(C(=O)NCc3ccccc3)C2CN1Cc1cccc(Cl)c1Cl (stereo not drawn) [IC-2-506-1] | more potent inhibitory effect | more potent anti-fibrosis effect | more potent inhibitory effect | anti-tumor effect compared with IC-2 (HuH-7 cells; at a concentration lower than that of IC-2): more potent anti-tumor effect
3 | 18.3 | lower IC50 than IC-2 | O=C1C(Cc2ccccc2)N2C(=O)CCN(C(=O)NCc3ccccc3)C2CN1Cc1ccc(Cl)c(Cl)c1 (stereo not drawn) [IC-2-506-3] | more potent inhibitory effect | – | – | anti-fibrosis effect compared with IC-2, lower concentration (LX-2 cells; concentration even lower than that of IC-2): more potent anti-fibrosis effect
4 | – | – | COc1ccc(CN2CC3N(C(=O)NCc4ccccc4)CCC(=O)N3C(Cc3ccccc3)C2=O)cc1 (stereo not drawn) [IC-2-Ar-OMe] | – | – | – | inhibitory effect on Wnt/β-catenin signaling in mesenchymal stem cells (Wnt/β-catenin signaling [2]): all the compounds except for IC-2-Ar-OMe, 9b, and 7c-NT exhibited a significant inhibitory effect
5 | 45.1 | – | O=C1C(Cc2ccccc2)N2C(=O)CCN(C(=O)NCc3ccccc3)C2CN1Cc1ccc(Cl)cc1 (stereo not drawn) [IC-2-Ar—Cl] | – | more potent anti-fibrosis effect | more potent inhibitory effect | inhibitory effect on Wnt/β-catenin signaling pathway in mesenchymal stem cells compared with IC-2 (Wnt/β-catenin signaling [2]): more potent inhibitory effect
6 | – | – | O=C1C(Cc2ccccc2)N2C(=O)CCN(C(=O)NCc3ccccc3)C2CN1Cc1ccc([N+](=O)[O-])cc1 (stereo not drawn) [IC-2-Ar—NO2] | – | – | – | inhibitory effect on Wnt/β-catenin signaling pathway in mesenchymal stem cells compared with IC-2 (Wnt/β-catenin signaling [2]): more potent inhibitory effect
7 | 33.5 | – | O=C1C(Cc2ccccc2)N2C(=O)CCN(C(=O)NCc3ccc(O)cc3)C2CN1Cc1cccc2ccccc12 (stereo not drawn) [IC-2-OH] | – | more potent anti-fibrosis effect | more potent inhibitory effect | –
8 | 20.3 | lower IC50 than IC-2 | COCOc1ccc(CNC(=O)N2CCC(=O)N3C(Cc4ccccc4)C(=O)N(Cc4cccc5ccccc45)CC23)cc1 (stereo not drawn) [IC-2-OMOM] | – | – | more potent inhibitory effect | –
9 | 34.9 | – | COc1ccc(CNC(=O)N2CCC(=O)N3C(Cc4ccccc4)C(=O)N(Cc4cccc5ccccc45)CC23)cc1 (stereo not drawn) [IC-2-OMe] | – | – | more potent inhibitory effect | –
